Laboratory results as given in ChEMBL document CHEMBL3758174, “Discovery and Characterization of 2-Acylaminoimidazole Microsomal Prostaglandin E Synthase-1 Inhibitors” (J Med Chem, 2016).
Values after ≈ are worked out from the molar mass of the structure shown. Active and inactive are the calls of the source. The calls are words filed in the database; no cut-off is given here.

Assays:
[1] = molecular target: T1, Prostaglandin E synthase (Homo sapiens, UniProt O14684); assay: Inhibition of mPGES1 in rhIL-1beta-stimulated human A549 cells assessed as PGE2 level treated for 18 hrs after 30 mins pre-incubation with rhIL-1beta by EIA method; assay type: cell-based
T1 sequence (O14684 whole entry): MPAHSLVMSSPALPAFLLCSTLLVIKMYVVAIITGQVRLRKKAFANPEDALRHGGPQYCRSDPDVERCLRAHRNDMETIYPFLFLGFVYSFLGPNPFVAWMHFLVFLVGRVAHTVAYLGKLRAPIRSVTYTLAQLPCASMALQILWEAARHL

[2] = Oral bioavailability in beagle dog at 2 mg/kg after 0.25 to 24 hrs by LC-MS/MS analysis; assay type: ADME, organism-based, Canis lupus familiaris; details: in vivo
[3] = molecular target: T2, Prostaglandin E synthase (Homo sapiens) (UniProt O14684); assay: (§1) Inhibition of mPGES1 in LPS-induced human whole blood assessed as suppression of PGE2 response after 20 to 24 hrs by LC-MS/MS analysis; assay type: tissue-based
T2 sequence (whole entry): T1 sequence (O14684 whole entry)

[4] = molecular target: T1, Prostaglandin E synthase; assay: as §1; assay type: tissue-based
[5] = molecular target: T3, CYP3A4 (Homo sapiens, UniProt P08684); assay: Time-dependent inhibition of microsomal CYP3A4 (unknown origin) using midazolam as substrate assessed as alpha-hydroxymidazolam-d4 at 10 uM pre-incubated for 12 mins before NADPH addition formation after 30 mins by LC-MS/MS analysis; assay type: ADME; details: microsomes, probe midazolam
[6] = Tmax in beagle dog at 2 mg/kg,po after 0.25 to 24 hrs by LC-MS/MS analysis; assay type: ADME, organism-based, Canis lupus familiaris; details: in vivo
[7] = molecular target: T4, Cyclooxygenase (Homo sapiens) (UniProt P35354+P23219); assay: Inhibition of COX in human A549 cells assessed as reduction in PGE2 production at 10 uM; assay type: cell-based
[8] = Volume of distribution at steady state in beagle dog at 2 mg/kg,po or 0.5 mg/kg, iv after 0.25 to 24 hrs by LC-MS/MS analysis; assay type: ADME, organism-based, Canis lupus familiaris; details: in vivo, read-out: Vdss
[9] = molecular target: T1, Prostaglandin E synthase; assay: Inhibition of human microsomal PGES1 expressed in 293E cells by LC/MS/MS analysis; assay type: cell-based
[10] = Clearance in beagle dog at 2 mg/kg,po or 0.5 mg/kg, iv after 0.25 to 24 hrs by LC-MS/MS analysis; assay type: ADME, organism-based, Canis lupus familiaris; details: in vivo
[11] = molecular target: T4, Cyclooxygenase (Homo sapiens); assay: Inhibition of COX in human whole blood assessed as decrease in TXB2 production up to 30 uM; assay type: tissue-based
[12] = molecular target: T5, Prostaglandin E synthase (Canis lupus familiaris, UniProt A0SYQ0); assay: (§2) Inhibition of mPGES1 in LPS-induced dog whole blood assessed as suppression of PGE2 response pre-incubated for 30 mins followed by LPS addition and measured after 5 hrs by LC-MS/MS analysis; assay type: tissue-based
T5 sequence (A0SYQ0 whole entry): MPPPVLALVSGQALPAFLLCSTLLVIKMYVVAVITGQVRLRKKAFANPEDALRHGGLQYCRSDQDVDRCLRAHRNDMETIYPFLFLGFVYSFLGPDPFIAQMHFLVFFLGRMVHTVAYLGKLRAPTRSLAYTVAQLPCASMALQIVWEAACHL

[13] = Plasma concentration in beagle dog at 2 mg/kg, po after 24 hrs by LC-MS/MS analysis; assay type: ADME, organism-based, Canis lupus familiaris
[14] = molecular target: T3, CYP3A4; assay: Inhibition of microsomal CYP3A4 (unknown origin) using bufuralol/midazolam/diclofinac as substrate assessed as 1-hydroxybufuralol maleate-d9/alpha-hydroxymidazolam-d4/[13C6]-4-hydroxydiclofinac formation at 10 uM pre-incubated for 10 mins before NADPH addition by LC-MS/MS analysis; assay type: ADME; details: microsomes, probe bufuralol/midazolam/diclofinac
[15] = Inhibition of rat microsomal PGES1 expressed in 293E cells by LC/MS/MS analysis; assay type: cell-based
[16] = Solubility of compound in FasSIF at 2 mg at room temperature after 24 hrs by HPLC analysis; assay type: physicochemical
[17] = molecular target: Voltage-gated inwardly rectifying potassium channel KCNH2 (Homo sapiens, UniProt Q12809); assay: Inhibition of human ERG
[18] = molecular target: T6, Prostaglandin E synthase (Canis lupus familiaris) (UniProt A0SYQ0); assay: as §2; assay type: tissue-based
T6 sequence (whole entry): T5 sequence (A0SYQ0 whole entry)

[19] = molecular target: T7, Prostaglandin G/H synthase 2 (Homo sapiens) (UniProt P35354); assay: Inhibition of COX-2 (unknown origin) at 10 uM
T7 sequence (whole entry): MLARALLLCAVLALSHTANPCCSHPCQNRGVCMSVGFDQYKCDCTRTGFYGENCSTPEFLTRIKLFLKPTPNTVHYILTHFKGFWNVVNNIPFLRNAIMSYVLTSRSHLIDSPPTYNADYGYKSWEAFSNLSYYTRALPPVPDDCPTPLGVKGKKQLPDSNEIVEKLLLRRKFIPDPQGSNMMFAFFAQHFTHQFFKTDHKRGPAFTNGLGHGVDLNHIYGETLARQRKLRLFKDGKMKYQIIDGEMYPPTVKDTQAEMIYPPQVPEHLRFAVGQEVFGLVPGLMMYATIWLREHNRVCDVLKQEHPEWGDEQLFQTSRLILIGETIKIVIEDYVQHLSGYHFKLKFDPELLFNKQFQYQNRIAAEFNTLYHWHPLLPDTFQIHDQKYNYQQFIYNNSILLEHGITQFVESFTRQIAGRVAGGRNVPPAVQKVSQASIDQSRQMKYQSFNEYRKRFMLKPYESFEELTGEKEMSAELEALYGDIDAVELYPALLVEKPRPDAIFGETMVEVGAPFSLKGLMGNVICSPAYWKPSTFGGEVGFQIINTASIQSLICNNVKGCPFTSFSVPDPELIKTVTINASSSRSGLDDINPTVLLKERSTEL

[20] = molecular target: Prostaglandin G/H synthase 1 (Homo sapiens) (UniProt P23219); assay: Inhibition of COX-1 (unknown origin) at 10 uM
[21] = test system: Plasma; assay: Plasma concentration in beagle dog at 2 mg/kg, po after; assay type: ADME, organism-based, Canis lupus familiaris; details: in vivo
[22] = molecular target: T8, hERG (Homo sapiens, UniProt Q12809); assay: Inhibition of human ERG at 100 uM
[23] = molecular target: T8, hERG; assay: Inhibition of human ERG at 10 uM
[24] = molecular target: Prostaglandin G/H synthase 1 (Homo sapiens) (UniProt P23219); assay: Inhibition of COX1 (unknown origin) at 100 uM
[25] = Oral bioavailability in beagle dog at 0.5 mg/kg after 0.25 to 24 hrs by LC-MS/MS analysis; assay type: ADME, organism-based, Canis lupus familiaris; details: in vivo
[26] = Stability of compound at 70 degC/75% RH; assay type: physicochemical
[27] = Stability of compound at 40 degC/75% RH; assay type: physicochemical
[28] = molecular target: T4, Cyclooxygenase (Homo sapiens); assay: Inhibition of COX in human whole blood assessed as decrease in TXB2 production; assay type: tissue-based
[29] = molecular target: T4, Cyclooxygenase (Homo sapiens); assay: Inhibition of COX in human whole blood assessed as decrease in PGF2alpha production; assay type: tissue-based
[30] = molecular target: T4, Cyclooxygenase (Homo sapiens); assay: Inhibition of COX in human A549 cells assessed as reduction in PGE2 production; assay type: cell-based
[31] = molecular target: T7, Prostaglandin G/H synthase 2 (Homo sapiens); assay: Inhibition of COX2 (unknown origin) at 30 uM

T4 sequence (P23219 whole entry, looked up, one chain of several): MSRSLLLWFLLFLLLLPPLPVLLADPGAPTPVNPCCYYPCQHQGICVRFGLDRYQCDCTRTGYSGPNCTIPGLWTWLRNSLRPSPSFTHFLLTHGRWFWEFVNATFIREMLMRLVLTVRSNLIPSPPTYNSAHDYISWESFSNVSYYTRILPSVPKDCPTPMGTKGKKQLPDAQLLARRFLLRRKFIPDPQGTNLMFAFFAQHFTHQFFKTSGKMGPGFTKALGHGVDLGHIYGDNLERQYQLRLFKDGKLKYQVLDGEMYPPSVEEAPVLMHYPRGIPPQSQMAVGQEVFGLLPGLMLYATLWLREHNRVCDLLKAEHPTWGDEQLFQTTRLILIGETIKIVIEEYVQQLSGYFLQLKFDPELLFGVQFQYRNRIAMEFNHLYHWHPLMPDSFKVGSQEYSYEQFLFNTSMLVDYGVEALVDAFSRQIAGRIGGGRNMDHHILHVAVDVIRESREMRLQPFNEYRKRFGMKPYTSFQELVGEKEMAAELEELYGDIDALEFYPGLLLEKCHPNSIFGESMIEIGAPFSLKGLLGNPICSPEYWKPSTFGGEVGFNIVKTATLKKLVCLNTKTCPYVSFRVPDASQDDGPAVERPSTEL
T3 sequence (P08684 whole entry): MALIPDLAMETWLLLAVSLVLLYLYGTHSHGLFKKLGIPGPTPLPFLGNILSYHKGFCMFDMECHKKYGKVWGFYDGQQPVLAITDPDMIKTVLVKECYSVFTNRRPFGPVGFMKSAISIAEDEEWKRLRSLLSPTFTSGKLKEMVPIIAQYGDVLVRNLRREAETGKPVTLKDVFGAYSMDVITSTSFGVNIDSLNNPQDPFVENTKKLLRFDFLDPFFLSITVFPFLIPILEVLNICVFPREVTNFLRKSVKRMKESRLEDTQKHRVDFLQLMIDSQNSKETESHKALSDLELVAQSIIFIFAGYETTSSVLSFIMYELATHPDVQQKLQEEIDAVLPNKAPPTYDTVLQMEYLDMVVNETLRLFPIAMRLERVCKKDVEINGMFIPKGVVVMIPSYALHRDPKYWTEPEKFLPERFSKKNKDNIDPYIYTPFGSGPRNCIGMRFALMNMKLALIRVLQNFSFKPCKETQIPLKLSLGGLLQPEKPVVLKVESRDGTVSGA
Prostaglandin G/H synthase 1 (Homo sapiens), sequence (P23219 whole entry): as the sequence (P23219 whole entry, looked up, one chain of several) above
Voltage-gated inwardly rectifying potassium channel KCNH2, sequence (Q12809 whole entry): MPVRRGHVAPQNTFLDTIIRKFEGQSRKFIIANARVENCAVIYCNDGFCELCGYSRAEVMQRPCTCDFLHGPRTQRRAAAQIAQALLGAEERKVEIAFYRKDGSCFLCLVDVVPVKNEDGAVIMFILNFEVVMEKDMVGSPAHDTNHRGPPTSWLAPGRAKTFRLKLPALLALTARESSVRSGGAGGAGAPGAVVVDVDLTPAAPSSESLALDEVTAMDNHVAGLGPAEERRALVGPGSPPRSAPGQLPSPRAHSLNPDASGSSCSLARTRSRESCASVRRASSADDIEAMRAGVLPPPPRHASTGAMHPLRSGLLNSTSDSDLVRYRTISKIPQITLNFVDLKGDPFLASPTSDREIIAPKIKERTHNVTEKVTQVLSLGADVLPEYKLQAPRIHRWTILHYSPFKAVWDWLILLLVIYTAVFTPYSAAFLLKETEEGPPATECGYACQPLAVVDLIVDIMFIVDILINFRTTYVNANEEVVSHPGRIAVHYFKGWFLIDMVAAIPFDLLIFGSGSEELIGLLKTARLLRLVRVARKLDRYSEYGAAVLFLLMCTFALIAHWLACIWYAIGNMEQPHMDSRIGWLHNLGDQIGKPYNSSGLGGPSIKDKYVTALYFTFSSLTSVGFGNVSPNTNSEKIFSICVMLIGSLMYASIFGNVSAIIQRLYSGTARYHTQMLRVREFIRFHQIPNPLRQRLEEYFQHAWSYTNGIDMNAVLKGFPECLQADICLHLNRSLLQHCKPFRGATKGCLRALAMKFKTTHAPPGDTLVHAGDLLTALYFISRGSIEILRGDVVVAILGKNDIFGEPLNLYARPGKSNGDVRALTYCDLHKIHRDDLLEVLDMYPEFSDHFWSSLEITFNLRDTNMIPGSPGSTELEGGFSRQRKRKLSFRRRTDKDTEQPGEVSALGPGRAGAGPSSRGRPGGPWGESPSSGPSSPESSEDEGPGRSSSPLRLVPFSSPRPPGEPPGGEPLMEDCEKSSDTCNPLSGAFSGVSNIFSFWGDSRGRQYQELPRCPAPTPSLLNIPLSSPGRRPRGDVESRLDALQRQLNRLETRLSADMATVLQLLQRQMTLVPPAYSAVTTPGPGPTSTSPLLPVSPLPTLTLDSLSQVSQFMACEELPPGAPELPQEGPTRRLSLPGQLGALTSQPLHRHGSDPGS
T8 sequence (Q12809 whole entry): as above

Row | IC50 [1] [µM] | IC80 [3] [µM] | IC50 [4] [µM] | inhibition at 0.5 h, 10 µM [5] [%] | inhibition [7] | IC50 [9] [µM] | inhibition [11] | inhibition at 10 µM [14] [%] | Compound | further results
1 | 3.15 | 31 | 4.61 | 20 | inactive | 2.46 | inactive | – | CC(C)C(=O)NCc1ccc(C(F)F)c(C(=O)Nc2ncc[nH]2)c1 | bioavailability [2]: 100%; Tmax [6]: 15 min; Vd [8]: 2.27 L/kg; clearance [10]: 26.1 mL/min/kg
2 | – | – | – | 23 | – | 0.0009 | – | 0 | Cc1nc(NC(=O)c2cc(CNC(=O)C(C)C)cnc2C(F)F)[nH]c1-c1ccc(C(F)(F)F)cc1 [listing 1 of 2 here] | bioavailability [2]: 37%; IC50 [12]: 0.139 µM; concentration at 24 h [13]: > 200 nM; IC50 [15]: 33.9 µM; solubility at 24 h [16]: 7 µg/mL (≈ 14.1 µM); IC50 [17]: 82.6 µM; Ki [17]: 41.3 µM
3 | 3.25 | 33.7 | 1.43 | – | inactive | 0.676 | inactive | – | CC(C)(C)C(=O)NCc1ccc(C(F)F)c(C(=O)Nc2ncc[nH]2)c1 | –
4 | – | 0.069 | – | – | – | – | – | – | Cc1nc(NC(=O)c2cc(CNC(=O)C(C)C)cnc2C(F)F)[nH]c1-c1ccc(C(F)(F)F)cc1 [listing 2 of 2 here] | IC80 [18]: 0.703 µM; inhibition [19]: inactive; inhibition [20]: inactive
5 | – | 2.44 | – | – | inactive | – | inactive | – | CC(C)(C)C(=O)NCc1ccc(Cl)c(C(=O)Nc2ncc[nH]2)c1 [LY-3031207] | concentration [21]: > 1000 nM; inhibition at 100 µM [22]: 14%; IC80 [18]: 1.84 µM; IC50 [12]: 0.555 µM; IC50 [15]: > 1000 µM; inhibition at 10 µM [23]: -4%; inhibition [24]: 9%; bioavailability [25]: 60%
6 | 0.72 | – | – | 8 | – | 0.074 | – | 19 | CC(=O)NCc1cnc(C(F)F)c(C(=O)Nc2nc(C)c(-c3ccc(C(F)(F)F)cc3)[nH]2)c1 | –
7 | – | – | – | – | – | – | – | – | Cc1nc(NC(=O)c2cc(CNC(=O)C(C)C)cnc2C(F)F)[nH]c1-c1ccc(C(F)(F)F)cc1.O=P(O)(O)O | Stability [26]: 2 weeks; Stability [27]: 4 weeks
8 | 1.23 | 9.37 | 0.853 | – | inactive | 0.385 | inactive | – | CCC(C)(C)C(=O)NCc1ccc(Cl)c(C(=O)Nc2ncc[nH]2)c1 | –
9 | – | 8.8 | – | – | inactive | – | inactive | – | CC(C)C(=O)NCc1ccc(Cl)c(C(=O)Nc2ncc[nH]2)c1 | –
10 | 0.098 | 0.991 | 0.374 | 15 | – | 0.0103 | – | 0 | CCC(=O)NCc1cnc(C(F)F)c(C(=O)Nc2nc(C)c(-c3ccc(C(F)(F)F)cc3)[nH]2)c1 | –
11 | 8.86 | 21.1 | 10.5 | – | inactive | 1.12 | inactive | – | CC[C@H](C)C(=O)NCc1ccc(C(F)F)c(C(=O)Nc2ncc[nH]2)c1 | –
12 | 0.037 | 0.146 | 0.029 | 72 | – | < 0.003 | – | 22 | CC(C)C(=O)NCc1cnc(C(F)F)c(C(=O)Nc2ncc(-c3ccc(Cl)cc3)[nH]2)c1 | inhibition [28]: inactive; inhibition [29]: inactive; inhibition [30]: inactive
13 | 0.019 | 0.994 | 0.338 | 75 | – | < 0.003 | – | 44 | CC(C)C(=O)NCc1ccc(C(F)F)c(C(=O)Nc2ncc(-c3ccc(Cl)cc3)[nH]2)c1 | inhibition [28]: inactive; inhibition [29]: inactive; inhibition [30]: inactive
14 | 0.039 | 0.48 | 0.091 | 27 | – | < 0.003 | – | 0 | Cc1nc(NC(=O)c2cc(CNC(=O)C(C)C)cnc2C(F)F)[nH]c1-c1ccc(Cl)cc1 | –
15 | > 10 | 57.4 | 9.53 | – | inactive | 3.67 | inactive | – | CC(C)C(=O)NCc1cc(C(=O)Nc2ncc[nH]2)c(Cl)cc1F | –
16 | 4.62 | 9.08 | 2.43 | – | inactive | 3.11 | inactive | – | Cc1ccc(CNC(=O)C(C)(C)C)cc1C(=O)Nc1ncc[nH]1 | inhibition [31]: 16%
17 | 8.85 | 132 | 13 | – | inactive | 2.32 | inactive | – | Cc1cc(Cl)c(C(=O)Nc2ncc[nH]2)cc1CNC(=O)C(C)C | –
18 | – | – | – | – | – | – | – | 46 | Cc1c(CC(C)(C)C(=O)O)n(Cc2ccc(Cl)cc2)c2ccc(-c3ccc(-c4ccccc4)c(F)c3)cc12 | –
19 | 3.23 | 10.5 | 2.14 | – | inactive | 1.08 | inactive | – | CC(C)(C)C(=O)NCc1ccc(C(F)(F)F)c(C(=O)Nc2ncc[nH]2)c1 | –

Row | Compound | IC50 [1] [µM] | IC80 [3] [µM] | IC50 [4] [µM] | inhibition at 0.5 h, 10 µM [5] [%] | inhibition [7] | IC50 [9] [µM] | inhibition [11] | inhibition at 10 µM [14] [%] | further results
20 | CC(C)(C)C(=O)NCc1ccc(Br)c(C(=O)Nc2ncc[nH]2)c1 | – | – | – | – | inactive | – | inactive | – | –
21 | N#Cc1cccc(C#N)c1-c1nc2c3ccc(Cl)cc3c3ccccc3c2[nH]1 | – | – | – | – | – | – | – | 32 | –
